Results taken from patent publication US6737383B1, “Herbicidal oxadiazolidines” (priority 1999, dated 2004).
Blank lines part the entries; values can stand above or below the molecule they belong to.

Legend:
cotton = test: Test C postemergence cotton; type: in vivo, Gossypium hirsutum; conditions: 0 to 100 scale, 0 no effect, 100 complete control
Protocol: (§1) Compounds evaluated in this test were formulated in a non-phytotoxic solvent mixture which included a surfactant and applied to plants that were grown for various periods of time before treatment (postemergence application). A mixture of sandy loam soil and greenhouse potting mix in a 60:40 ratio was used for the postemergence test.
(§2) Plantings of these crops and weed species were adjusted to produce plants of appropriate size for the postemergence test. All plant species were grown using normal greenhouse practices. Crop and weed species include arrowleaf sida (Sida rhombifolia), barnyardgrass (Echinochloa crus-galli), cocklebur (Xanthium strumarium), common ragweed (Ambrosia elatior), corn (Zea mays), cotton (Gossypium hirsutum), eastern black nightshade (Solanum ptycanthum), fall panicum (Panicum dichotomiflorum), field bindweed (Convolvulus arvensis), giant foxtail (Setaria faberii), hairy beggarticks (Bidens pilosa), ivyleaf morningglory (Ipomoea hederacea), johnsongrass (Sorghum halepense), ladysthumb smartweed (Polygonum persicaria), lambsquarters (Chenopodium album), large crabgrass (Digitaria sanguinalis), purple nutsedge (Cyperus rotundus), redroot pigweed (Amaranthus retroflexus), soybean (Glycine max), surinam grass (Brachiaria decumbens), velvetleaf (Abutilon theophrasti) and wild poinsettia (Euphorbia heterophylla).
(§3) Treated plants and untreated controls were maintained in a greenhouse for approximately 14, to 21 days, after which all treated plants were compared to untreated controls and visually evaluated. Plant response ratings, summarized in Table C, were based upon a 0 to 100 scale where 0 was no effect and 100 was complete control. A dash response (−) means no test result.

eastern black nightshade = test: Test C postemergence eastern black nightshade; type: in vivo, Solanum ptycanthum; conditions: 0 to 100 scale, 0 no effect, 100 complete control
How it was run: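 Postemergence spray; formulation = non-phytotoxic solvent + surfactant; soil 60:40 sandy loam:greenhouse potting mix; greenhouse, ~14–21 d; visual rating vs untreated, 0–100 (100 = complete control).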

field bindweed = test: Test C postemergence field bindweed; type: in vivo, Convolvulus arvensis; conditions: 0 to 100 scale, 0 no effect, 100 complete control
Protocol: as §1, §2, §3

surinam grass = test: Test C postemergence surinam grass; type: in vivo, Brachiaria decumbens; conditions: 0 to 100 scale, 0 no effect, 100 complete control
Protocol: as §1, §2, §3

littleseed canarygrass = test: Test E littleseed canarygrass; type: in vivo, Phalaris minor; conditions: Postemergence; for Plant response rating, LS canarygrass: 0 to 100 scale; for LS canarygrass plant response rating: Rate 250 g/ha, 0 to 100 scale where 0 is no effect and 100 is complete control
Protocol: as §1, with “in the 1- to 4-leaf stage” for “grown for various periods of time before treatment”
Plantings of these crops and weed species were adjusted to produce plants of appropriate size for the postemergence test. All plant species were grown using normal greenhouse practices. Crop and weed species include annual bluegrass (Poa annua), blackgrass (Alopecurus myosuroides), black nightshade (Solanum nigra), chickweed (Stellaria media), common poppy (Papaver rhoeas), deadnettle (Lamium amplexicaule), downy brome (Bromus tectorum), field violet (Viola arvensis), galium (Galium aparine), green foxtail (Setaria viridis), Italian ryegrass (Lolium multiflorum), jointed goatgrass (Aegilops cylindrica), kochia (Kochia scoparia), lambsquarters (Chenopodium album), littleseed canarygrass (Phalaris minor), rape (Brassica napus), redroot pigweed (Amaranthus retroflexus), Russian thistle (Salsola kali), scentless chamomile (Matricaria inodora), spring barley (Hordeum vulgare), sugar beet (Beta vulgaris), sunflower (Helianthus annuus), ivyleaf speedwell (Veronica hederaefolia), spring wheat (Triticum aestivum), winter wheat (Triticum aestivum), wild buckwheat (Polygonum convolvulus), wild mustard (Sinapis arvensis), wild oat (Avena fatua), windgrass (Apera spica-venti) and winter barley (Hordeum vulgare).
Treated plants and untreated controls were maintained in a greenhouse for approximately 21 to 28 days, after which all treated plants were compared to untreated controls and visually evaluated. […] A dash response (-) means no test result.

certain weeds = test: Test F overall statement on synergism with rimsulfuron (Colby's equation); type: in vivo; conditions: combinations with rimsulfuron, preemergence
Protocol: Abutilon theophrasti (ABUTH), Chenopodium album (CHEAL), Amaranthus rudis (AMATA), Setaria […]), Panicum dichotomiflorum (PANDI), and Digitaria sanguinalis (DIGSA) were grown from seed in pots of an artificial potting mixture in a greenhouse. Compounds of the present invention were applied at 70 and 105 g ai/ha preemergence. Rimsulfuron was applied at 8.8 and 17.5 g ai/ha. Mixtures of the compounds of the present invention and rimsulfuron were also applied. Following application, the plants were maintained by watering as needed. A fertilizer solution of Peter's 20-20-20 (10 pounds/5 gallons of water) plus Sprint 330, a Iron Chelate micronutrient, (113.5 grams/5 gallons of water) was injected into the water with an Anderson fertilizer injection system to provide approximately 219 ppm of nitrogen with each watering. Artificial lighting was used to supplement natural light to produce a 14 hour photoperiod and: an additional one hour light period was used between 1:00 am to 2:00 am for a night interruption. Greenhouse temperatures were targeted for 27° C. in the day and 21° C. at night. At 21 days after treatment, all plants were evaluated for injury as compared to control plants that were sprayed only with non-phytotoxic solvent. […] Colby's equation was used to calculate the expected additive herbicidal effect of the mixtures of Compound 21 and the mixture partners listed above. […]

pitted morningglory = test: Test D pitted morningglory; type: in vivo, Ipomoea lacunosa; conditions: Postemergence, 0 to 100 scale
sourgrass = test: Test D sourgrass; type: in vivo, Trichachne insularis; conditions: Preemergence, 0 to 100 scale
How it was run: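 Weed seeds planted in sandy loam; species kept apart in individual pots or compartments. Preemergence tests: treatment to soil surface within one day. Greenhouse growth, then visual injury scoring at 14–21 days (0–100).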

velvetleaf = test: Test A velvetleaf; type: in vivo, Abutilon theophrasti; conditions: 0 to 10 scale where 0 is no effect and 10 is complete control
How it was run: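 Injury scored visually after about eleven greenhouse days against untreated plants, 0 = no effect, 10 = complete control. Compounds, formulated in surfactant-containing non-phytotoxic solvent, were applied as preemergence soil drench to sandy loam plantings and as postemergence runoff spray at the 1–2 leaf stage.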

[1] = Rate 16 g/ha, 0 no injury, 100 complete control
[2] = Rate 32 g/ha, 0 no injury, 100 complete control
[3] = Rate 64 g/ha, 0 no injury, 100 complete control
[4] = Rate 125 g/ha, 0 no injury, 100 complete control

Compound: CC(C)N(C(=O)n1oc(=O)n(C2CC2)c1=O)c1ccc(F)cc1 [Compound 242]
Plant response rating Cotton (cotton; Rate 140 g/ha): 0 | Plant response rating Cotton (cotton; Rate 280 g/ha): 20 | Plant response rating Cotton (cotton; Rate 560 g/ha): 45 | Plant response rating Cotton (cotton; Rate 1120 g/ha): 70 | Plant response rating E. blacknightsh (eastern black nightshade; Rate 140 g/ha): 0 | Plant response rating E. blacknightsh (eastern black nightshade; Rate 280 g/ha): 40 | Plant response rating E. blacknightsh (eastern black nightshade; Rate 560 g/ha): 60 | Plant response rating E. blacknightsh (eastern black nightshade; Rate 1120 g/ha): 90 | Plant response rating Field bindweed (field bindweed; Rate 140 g/ha): 0 | Plant response rating Field bindweed (field bindweed; Rate 560 g/ha): 0 | Plant response rating Field bindweed (field bindweed; Rate 1120 g/ha): 0 | Plant response rating, Surinam grass (surinam grass; Rate 140 g/ha): 0 | Plant response rating, Surinam grass (surinam grass; Rate 280 g/ha): 40 | Plant response rating, Surinam grass (surinam grass; Rate 560 g/ha): 85 | Plant response rating, Surinam grass (surinam grass; Rate 1120 g/ha): 90 | Plant response rating, LS canarygrass (littleseed canarygrass; Rate 62 g/ha): 65 | Plant response rating, LS canarygrass (littleseed canarygrass; Rate 125 g/ha, 0 is no effect, 100 is complete control): 10 | LS canarygrass plant response rating (littleseed canarygrass): 15 | Plant response rating, LS canarygrass (littleseed canarygrass; Rate 500 g/ha, 0 is no effect, 100 is complete control): 50 | Weed control of combination with rimsulfuron compared with expectation from Colby's equation (certain weeds): better control of certain weeds than expected | Plant response rating, P. morninglory (pitted morningglory; [1]): 0 | Plant response rating, P. morninglory (pitted morningglory; [2]): 0 | Plant response rating, P. morninglory (pitted morningglory; [3]): 0 | Plant response rating, P. morninglory (pitted morningglory; [4]): 0 | Plant response rating, P. morninglory (pitted morningglory; Rate 250 g/ha): 0

Compound: CC(C)N(C(=O)n1oc(=O)n(C)c1=O)c1ccc(F)cc1 [Compound 138]
Plant response rating Cotton (cotton; Rate 140 g/ha): 5 | Plant response rating Cotton (cotton; Rate 280 g/ha): 30 | Plant response rating Cotton (cotton; Rate 560 g/ha): 40 | Plant response rating Cotton (cotton; Rate 1120 g/ha): 70 | Plant response rating E. blacknightsh (eastern black nightshade; Rate 140 g/ha): 0 | Plant response rating E. blacknightsh (eastern black nightshade; Rate 280 g/ha): 10 | Plant response rating E. blacknightsh (eastern black nightshade; Rate 560 g/ha): 70 | Plant response rating E. blacknightsh (eastern black nightshade; Rate 1120 g/ha): 70 | Plant response rating Field bindweed (field bindweed; Rate 140 g/ha): 0 | Plant response rating Field bindweed (field bindweed; Rate 280 g/ha): 0 | Plant response rating Field bindweed (field bindweed; Rate 560 g/ha): 0 | Plant response rating Field bindweed (field bindweed; Rate 1120 g/ha): 50 | Plant response rating, Surinam grass (surinam grass; Rate 140 g/ha): 10 | Plant response rating, Surinam grass (surinam grass; Rate 280 g/ha): 40 | Plant response rating, Surinam grass (surinam grass; Rate 560 g/ha): 85 | Plant response rating, Surinam grass (surinam grass; Rate 1120 g/ha): 90 | Plant response rating Sourgrass (sourgrass; [3]): 98 | Plant response rating Sourgrass (sourgrass; [4]): 100 | Plant response rating Sourgrass (sourgrass; Rate 500 g/ha): 100 | Plant response rating, LS canarygrass (littleseed canarygrass; Rate 125 g/ha): 10 | LS canarygrass plant response rating (littleseed canarygrass): 10

melting point: 57 to 60 °C
Compound: CC(C)N(C(=O)n1oc(=O)n(-c2ccc(Cl)cc2Cl)c1=O)c1ccc(F)cc1 [Compound 7, 4-(2,4-Dichlorophenyl)-N-(4-fluorophenyl)-N-(1-methylethyl)-3,5-dioxo-1,2,4-oxadiazolidine-2-carboxamide]

Compound: CCN(CC)C(=O)n1oc(=O)n(-c2c(C)cccc2C)c1=O [Compound 2]
Plant response rating, Velvetleaf (velvetleaf; Postemergence, Rate 1000 g/ha): 0 | Plant response rating, Velvetleaf (velvetleaf; Pre-emergence, Rate 2000 g/ha): 0

Compound: COc1ccccc1-n1c(=O)on(C(=O)N(c2ccc(F)cc2)C(C)C)c1=O [Compound 30]
Plant response rating Sourgrass (sourgrass; [3]): 100

Compound: CC(C)N(C(=O)n1oc(=O)n(C2CCCCCC2)c1=O)c1ccc(F)cc1F [Compound 342]
Plant response rating, P. morninglory (pitted morningglory; [1]): 0 | Plant response rating, P. morninglory (pitted morningglory; [2]): 0 | Plant response rating, P. morninglory (pitted morningglory; [3]): 0 | Plant response rating, P. morninglory (pitted morningglory; [4]): 0 | Plant response rating, P. morninglory (pitted morningglory; Rate 250 g/ha): 0
